Reference: PubChem BioAssay AID1963428 (Molecular Pharmacology Branch, DTP, NCI, 2024)

System: 171881-019-R-J1-PDC complex spheroid growth, % test/control
Assay: Anticancer human tumor 171881-019-R-J1-PDC patient-derived invasive breast carcinoma cell line growth inhibition [Asc]
Conditions: for IC50: curve of first compound; for viability, T/C: stronger effect = lower value
How it was run: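 Complex solid-tumor spheroids incorporating human endothelial and mesenchymal stem cells received single agents or combinations over half-log dilution ranges anchored to clinical Cmax.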

[1] = second compound 0.1 µM, first compound 0.00316 µM
[2] = second compound 0.1 µM, first compound 0.01 µM
[3] = second compound 0.1 µM, first compound 0.0316 µM
[4] = second compound 0.1 µM, first compound 0.1 µM
[5] = second compound 0.316 µM, first compound 0.00316 µM
[6] = second compound 0.316 µM, first compound 0.01 µM
[7] = second compound 0.316 µM, first compound 0.0316 µM
[8] = second compound 0.316 µM, first compound 0.1 µM
[9] = second compound 1 µM, first compound 0.00316 µM
[10] = second compound 1 µM, first compound 0.01 µM
[11] = second compound 1 µM, first compound 0.0316 µM
[12] = second compound 1 µM, first compound 0.1 µM
[13] = second compound 3.16 µM, first compound 0.00316 µM
[14] = second compound 3.16 µM, first compound 0.01 µM
[15] = second compound 3.16 µM, first compound 0.0316 µM
[16] = second compound 3.16 µM, first compound 0.1 µM
[17] = second compound 10 µM, first compound 0.00316 µM
[18] = second compound 10 µM, first compound 0.01 µM
[19] = second compound 10 µM, first compound 0.0316 µM
[20] = second compound 10 µM, first compound 0.1 µM
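Throughout, for viability, T/C: spheroids exposed to compounds for 7 days.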

Work on `COc1c(OCCCN2CCOCC2)ccc2c3n(c(=NC(=O)c4cnc(N)nc4)nc12)CCN3` + Cc1c(S(C)(=O)=O)c(-c2cc(F)cc(N3CCN(c4ccc(NS(=O)(=O)c5ccc(NC(CCN6CCC(C(=O)OCCCP(=O)(O)O)CC6)CSc6ccccc6)c(S(=O)(=O)C(F)(F)F)c5)cc4)CC3)c2)c(-c2ccc(Cl)cc2)n1C(C)C yielded an IC50 (second compound 0.1 µM) of 21.8 nM, an IC50 (second compound 0.316 µM) of 13.8 nM and an IC50 (second compound 1 µM) of 9.37 nM. For the same molecule, the IC50 (second compound 3.16 µM) was 4.99 nM, the IC50 (second compound 10 µM) was 4.6 nM and the viability, T/C [1] was 148%. For the same molecule, the viability, T/C [2] was 91.5%, the viability, T/C [3] was 30.1% and the viability, T/C [4] was 7.28%. The viability, T/C (second compound 0.1 µM, first compound 0.316 µM) was 1.11%, the viability, T/C (second compound 0.1 µM, first compound 1 µM) was 0.49% and the viability, T/C [5] was 129%. It also gave a viability, T/C [6] of 62.6%, a viability, T/C [7] of 17% and a viability, T/C [8] of 5.34%. For the same molecule, the viability, T/C (second compound 0.316 µM, first compound 0.316 µM) was 0.77%, the viability, T/C (second compound 0.316 µM, first compound 1 µM) was 0.4% and the viability, T/C [9] was 102%. It also gave a viability, T/C [10] of 46.9%, a viability, T/C [11] of 12.7% and a viability, T/C [12] of 3.92%. The viability, T/C (second compound 1 µM, first compound 0.316 µM) was 0.8%, the viability, T/C (second compound 1 µM, first compound 1 µM) was 0.9% and the viability, T/C [13] was 64.2%. The viability, T/C [14] was 28.2%, the viability, T/C [15] was 8.79% and the viability, T/C [16] was 1.69%. For the same molecule, the viability, T/C (second compound 3.16 µM, first compound 0.316 µM) was 0.26%, the viability, T/C (second compound 3.16 µM, first compound 1 µM) was 0.49% and the viability, T/C [17] was 63.7%. The viability, T/C [18] was 21.6%, the viability, T/C [19] was 9.29% and the viability, T/C [20] was 0.84%. The viability, T/C (second compound 10 µM, first compound 0.316 µM) was 0.24% and the viability, T/C (second compound 10 µM, first compound 1 µM) was 1.51%.

`NC(=O)C(=Cn1cnc(-c2cc(C(F)(F)F)cc(C(F)(F)F)c2)n1)c1cncnc1` + Cc1c(S(C)(=O)=O)c(-c2cc(F)cc(N3CCN(c4ccc(NS(=O)(=O)c5ccc(NC(CCN6CCC(C(=O)OCCCP(=O)(O)O)CC6)CSc6ccccc6)c(S(=O)(=O)C(F)(F)F)c5)cc4)CC3)c2)c(-c2ccc(Cl)cc2)n1C(C)C was tested, and the IC50 (second compound 0.1 µM) was 25.4 nM, the IC50 (second compound 0.316 µM) was 18.8 nM and the IC50 (second compound 1 µM) was 17.3 nM. For the same molecule, the IC50 (second compound 3.16 µM) was 13.5 nM, the IC50 (second compound 10 µM) was 9.39 nM and the viability, T/C (second compound 0.1 µM, first compound 0.000949 µM) was 102%. For the same molecule, the viability, T/C (second compound 0.1 µM, first compound 0.003 µM) was 108%, the viability, T/C (second compound 0.1 µM, first compound 0.00949 µM) was 116% and the viability, T/C (second compound 0.1 µM, first compound 0.03 µM) was 40.1%. It also gave a viability, T/C (second compound 0.1 µM, first compound 0.0949 µM) of 4.69%, a viability, T/C (second compound 0.1 µM, first compound 0.3 µM) of 1.77% and a viability, T/C (second compound 0.316 µM, first compound 0.000949 µM) of 111%. It also gave a viability, T/C (second compound 0.316 µM, first compound 0.003 µM) of 159%, a viability, T/C (second compound 0.316 µM, first compound 0.00949 µM) of 84.5% and a viability, T/C (second compound 0.316 µM, first compound 0.03 µM) of 28.7%. The viability, T/C (second compound 0.316 µM, first compound 0.0949 µM) was 2.73%, the viability, T/C (second compound 0.316 µM, first compound 0.3 µM) was 1.39% and the viability, T/C (second compound 1 µM, first compound 0.000949 µM) was 144%. It also gave a viability, T/C (second compound 1 µM, first compound 0.003 µM) of 135%, a viability, T/C (second compound 1 µM, first compound 0.00949 µM) of 86.1% and a viability, T/C (second compound 1 µM, first compound 0.03 µM) of 16.6%. The viability, T/C (second compound 1 µM, first compound 0.0949 µM) was 2.27%, the viability, T/C (second compound 1 µM, first compound 0.3 µM) was 1.86% and the viability, T/C (second compound 3.16 µM, first compound 0.000949 µM) was 171%. The viability, T/C (second compound 3.16 µM, first compound 0.003 µM) was 151%, the viability, T/C (second compound 3.16 µM, first compound 0.00949 µM) was 65.4% and the viability, T/C (second compound 3.16 µM, first compound 0.03 µM) was 14.7%. For the same molecule, the viability, T/C (second compound 3.16 µM, first compound 0.0949 µM) was 1.2%, the viability, T/C (second compound 3.16 µM, first compound 0.3 µM) was 0.46% and the viability, T/C (second compound 10 µM, first compound 0.000949 µM) was 183%. For the same molecule, the viability, T/C (second compound 10 µM, first compound 0.003 µM) was 135%, the viability, T/C (second compound 10 µM, first compound 0.00949 µM) was 47.7% and the viability, T/C (second compound 10 µM, first compound 0.03 µM) was 13.5%. It also gave a viability, T/C (second compound 10 µM, first compound 0.0949 µM) of 1.03% and a viability, T/C (second compound 10 µM, first compound 0.3 µM) of 0.35%.

In the case of `NC1CCC(NC2CC2c2ccccc2)CC1` (stereo not given) + Cc1c(S(C)(=O)=O)c(-c2cc(F)cc(N3CCN(c4ccc(NS(=O)(=O)c5ccc(NC(CCN6CCC(C(=O)OCCCP(=O)(O)O)CC6)CSc6ccccc6)c(S(=O)(=O)C(F)(F)F)c5)cc4)CC3)c2)c(-c2ccc(Cl)cc2)n1C(C)C, the IC50 (second compound 0.1 µM) is reported as over 100 nM, the IC50 (second compound 0.316 µM) is reported as over 100 nM and the IC50 (second compound 1 µM) is reported as over 100 nM. The IC50 (second compound 3.16 µM) was over 100 nM, the IC50 (second compound 10 µM) was over 100 nM and the viability, T/C (second compound 0.1 µM, first compound 0.000316 µM) was 85.6%. The viability, T/C (second compound 0.1 µM, first compound 0.001 µM) was 83%, the viability, T/C [1] was 85.6% and the viability, T/C [2] was 81%. It also gave a viability, T/C [3] of 88.7%, a viability, T/C [4] of 91.8% and a viability, T/C (second compound 0.316 µM, first compound 0.000316 µM) of 99.9%. It also gave a viability, T/C (second compound 0.316 µM, first compound 0.001 µM) of 107%, a viability, T/C [5] of 90.5% and a viability, T/C [6] of 88.2%. For the same molecule, the viability, T/C [7] was 96%, the viability, T/C [8] was 84.1% and the viability, T/C (second compound 1 µM, first compound 0.000316 µM) was 97.6%. It also gave a viability, T/C (second compound 1 µM, first compound 0.001 µM) of 101%, a viability, T/C [9] of 91.5% and a viability, T/C [10] of 82.6%. The viability, T/C [11] was 84%, the viability, T/C [12] was 92.4% and the viability, T/C (second compound 3.16 µM, first compound 0.000316 µM) was 134%. It also gave a viability, T/C (second compound 3.16 µM, first compound 0.001 µM) of 99.3%, a viability, T/C [13] of 93% and a viability, T/C [14] of 88.3%. The viability, T/C [15] was 88.1%, the viability, T/C [16] was 104% and the viability, T/C (second compound 10 µM, first compound 0.000316 µM) was 154%. For the same molecule, the viability, T/C (second compound 10 µM, first compound 0.001 µM) was 127%, the viability, T/C [17] was 111% and the viability, T/C [18] was 115%. The viability, T/C [19] was 121% and the viability, T/C [20] was 92.3%.
